In patent US20210127673A1, “HERBICIDES” (SYNGENTA PARTICIPATIONS AG, priority 2016, published 2021):

Legend:
Assay type in all cases: in vivo
Settings in all cases: 1000 g/ha, evaluated after 13 days
[1] = test system: Echinochloa crus-galli (ECHCG); test: Post-emergence herbicidal activity, Echinochloa crus-galli; design: key: 5=total damage to plant; 0=no damage to plant
Description: (§1) Seeds of a variety of test species were sown in standard soil in pots: Triticum aestivium (TRZAW), Avena fatua (AVEFA), Alopecurus myosuroides (ALOMY), Echinochloa crus-galli (ECHCG), Lolium perenne (LOLPE), Zea Mays (ZEAMX), Abutilon theophrasti (ABUTH), Amaranthus retroflexus (AMARE) and Setaria faberi (SETFA). After 8 days cultivation (post-emergence) under controlled conditions in a glasshouse (at 24/16° C., day/night; 14 hours light; 65% humidity), the plants were sprayed with an aqueous spray solution derived from the formulation of the technical active ingredient in acetone/water (50:50) solution containing 0.5% Tween 20 (polyoxyethelyene sorbitan monolaurate, CAS RN 9005-64-5). The test plants were then grown in a glasshouse under controlled conditions (at 24/16° C., day/night; 14 hours light; 65% humidity) and watered twice daily. After 13 days, the test was evaluated (5=total damage to plant; 0=no damage to plant).

[2] = test system: Setaria faberi (SETFA); test: Post-emergence herbicidal activity, Setaria faberi; design: key: 5=total damage to plant; 0=no damage to plant
Description: as §1

[3] = test system: Lolium perenne (LOLPE); test: Post-emergence herbicidal activity, Lolium perenne
Description: as §1

[4] = test system: Echinochloa crus-galli (ECHCG); test: Pre-emergence herbicidal activity, Echinochloa crus-galli
Description: (§2) Seeds of a variety of test species were sown in standard soil in pots: Triticum aestivium (TRZAW), Avena fatua (AVEFA), Alopecurus myosuroides (ALOMY), Echinochloa crus-galli (ECHCG), Lolium perenne (LOLPE), Zea Mays (ZEAMX), Abutilon theophrasti (ABUTH), Amaranthus retroflexus (AMARE) and Setaria faberi (SETFA). After cultivation for one day (pre-emergence) under controlled conditions in a glasshouse (at 24/16° C., day/night; 14 hours light; 65% humidity), the plants were sprayed with an aqueous spray solution derived from the formulation of the technical active ingredient in acetone/water (50:50) solution containing 0.5% Tween 20 (polyoxyethelyene sorbitan monolaurate, CAS RN 9005-64-5). The test plants were then grown in a glasshouse under controlled conditions (at 24/16°, day/night; 14 hours light; 65% humidity) and watered twice daily. After 13 days, the test was evaluated (5=total damage to plant; 0=no damage to plant).

[5] = test system: Alopecurus myosuroides (ALOMY); test: Pre-emergence herbicidal activity, Alopecurus myosuroides; design: key: 5=total damage to plant; 0=no damage to plant
Description: as §2

[6] = test system: Alopecurus myosuroides (ALOMY); test: Post-emergence herbicidal activity, Alopecurus myosuroides; design: key: 5=total damage to plant; 0=no damage to plant
Description: as §1

[7] = test system: Lolium perenne (LOLPE); test: Pre-emergence herbicidal activity, Lolium perenne; design: key: 5=total damage to plant; 0=no damage to plant
Description: as §2

[8] = test system: Avena fatua (AVEFA); test: Post-emergence herbicidal activity, Avena fatua
Description: as §1

[9] = test system: Triticum aestivium (TRZAW); test: Post-emergence herbicidal activity, Triticum aestivium; design: key: 5=total damage to plant; 0=no damage to plant
Description: as §1

[10] = test system: Triticum aestivium (TRZAW); test: Pre-emergence herbicidal activity, Triticum aestivium; design: key: 5=total damage to plant; 0=no damage to plant
Description: as §2

[11] = test system: Avena fatua (AVEFA); test: Pre-emergence herbicidal activity, Avena fatua; design: key: 5=total damage to plant; 0=no damage to plant
Description: as §2

[12] = test system: Setaria faberi (SETFA); test: Pre-emergence herbicidal activity, Setaria faberi; design: key: 5=total damage to plant; 0=no damage to plant
Description: as §2

CC#Cc1cncc(-c2ccc(NC(=O)OC(C)(C)C)c(C)n2)c1 [Compound B33]
Control of ECHCG after post-emergence application (score 0-5) [1]: 2 | Control of SETFA after post-emergence application (score 0-5) [2]: 5 | Control of LOLPE after post-emergence application (score 0-5) [3]: 3 | Control of ECHCG after pre-emergence application (score 0-5) [4]: 2 | Control of ALOMY after pre-emergence application (score 0-5) [5]: 0 | Control of ALOMY after post-emergence application (score 0-5) [6]: 2 | Control of LOLPE after pre-emergence application (score 0-5) [7]: 1 | Control of AVEFA after post-emergence application (score 0-5) [8]: 4 | Control of TRAZW after post-emergence application (score 0-5) [9]: 2 | Control of TRAZW after pre-emergence application (score 0-5) [10]: 0 | Control of AVEFA after pre-emergence application (score 0-5) [11]: 2 | Control of SETFA after pre-emergence application (score 0-5) [12]: 4

CC(C)(C)OC(=O)Nc1ccc(-c2cncc(F)c2)nc1C#N [Compound B34, tert-butyl N-[2-cyano-6-(5-fluoro-3-pyridyl)-3-pyridyl]carbamate]
Control of ECHCG after post-emergence application (score 0-5) [1]: 5 | Control of SETFA after post-emergence application (score 0-5) [2]: 4 | Control of LOLPE after post-emergence application (score 0-5) [3]: 1 | Control of ECHCG after pre-emergence application (score 0-5) [4]: 4 | Control of ALOMY after pre-emergence application (score 0-5) [5]: 0 | Control of ALOMY after post-emergence application (score 0-5) [6]: 0 | Control of LOLPE after pre-emergence application (score 0-5) [7]: 1 | Control of AVEFA after post-emergence application (score 0-5) [8]: 2 | Control of TRAZW after post-emergence application (score 0-5) [9]: 1 | Control of TRAZW after pre-emergence application (score 0-5) [10]: 0 | Control of AVEFA after pre-emergence application (score 0-5) [11]: 0 | Control of SETFA after pre-emergence application (score 0-5) [12]: 5

C=CCN(C(=O)OC(C)(C)C)c1ccc(-c2cncnc2)nc1C(F)(F)F [Compound B35]
Control of ECHCG after post-emergence application (score 0-5) [1]: 3 | Control of SETFA after post-emergence application (score 0-5) [2]: 5 | Control of LOLPE after post-emergence application (score 0-5) [3]: 2 | Control of ECHCG after pre-emergence application (score 0-5) [4]: 2 | Control of ALOMY after pre-emergence application (score 0-5) [5]: 0 | Control of ALOMY after post-emergence application (score 0-5) [6]: 0 | Control of LOLPE after pre-emergence application (score 0-5) [7]: 1 | Control of AVEFA after post-emergence application (score 0-5) [8]: 2 | Control of TRAZW after post-emergence application (score 0-5) [9]: 1 | Control of TRAZW after pre-emergence application (score 0-5) [10]: 0 | Control of AVEFA after pre-emergence application (score 0-5) [11]: 0 | Control of SETFA after pre-emergence application (score 0-5) [12]: 4

O=C(NCc1ccc(Cl)cc1)Nc1ccc(-c2cncc(F)c2)nc1C(F)(F)F [Compound B38]
Control of ECHCG after post-emergence application (score 0-5) [1]: 2 | Control of SETFA after post-emergence application (score 0-5) [2]: 4 | Control of LOLPE after post-emergence application (score 0-5) [3]: 2 | Control of ECHCG after pre-emergence application (score 0-5) [4]: 1 | Control of ALOMY after pre-emergence application (score 0-5) [5]: 0 | Control of ALOMY after post-emergence application (score 0-5) [6]: 0 | Control of LOLPE after pre-emergence application (score 0-5) [7]: 0 | Control of AVEFA after post-emergence application (score 0-5) [8]: 2 | Control of TRAZW after post-emergence application (score 0-5) [9]: 0 | Control of TRAZW after pre-emergence application (score 0-5) [10]: 0 | Control of AVEFA after pre-emergence application (score 0-5) [11]: 0 | Control of SETFA after pre-emergence application (score 0-5) [12]: 3

O=C(Nc1ccc(-c2cncc(F)c2)nc1C(F)(F)F)N1CCOCC1 [Compound B39]
Control of ECHCG after post-emergence application (score 0-5) [1]: 5 | Control of SETFA after post-emergence application (score 0-5) [2]: 5 | Control of LOLPE after post-emergence application (score 0-5) [3]: 3 | Control of ECHCG after pre-emergence application (score 0-5) [4]: 4 | Control of ALOMY after pre-emergence application (score 0-5) [5]: 0 | Control of ALOMY after post-emergence application (score 0-5) [6]: 1 | Control of LOLPE after pre-emergence application (score 0-5) [7]: 1 | Control of AVEFA after post-emergence application (score 0-5) [8]: 4 | Control of TRAZW after post-emergence application (score 0-5) [9]: 1 | Control of TRAZW after pre-emergence application (score 0-5) [10]: 0 | Control of AVEFA after pre-emergence application (score 0-5) [11]: 3 | Control of SETFA after pre-emergence application (score 0-5) [12]: 5

CC(C)c1cc(NC(=O)Nc2ccc(-c3cncc(F)c3)nc2C(F)(F)F)on1 [Compound B40]
Control of ECHCG after post-emergence application (score 0-5) [1]: 1 | Control of SETFA after post-emergence application (score 0-5) [2]: 3 | Control of LOLPE after post-emergence application (score 0-5) [3]: 1 | Control of ECHCG after pre-emergence application (score 0-5) [4]: 1 | Control of ALOMY after pre-emergence application (score 0-5) [5]: 0 | Control of ALOMY after post-emergence application (score 0-5) [6]: 0 | Control of LOLPE after pre-emergence application (score 0-5) [7]: 1 | Control of AVEFA after post-emergence application (score 0-5) [8]: 2 | Control of TRAZW after post-emergence application (score 0-5) [9]: 0 | Control of TRAZW after pre-emergence application (score 0-5) [10]: 0 | Control of AVEFA after pre-emergence application (score 0-5) [11]: 0 | Control of SETFA after pre-emergence application (score 0-5) [12]: 1
